Laboratory results reported in US10457665B2, “1,4-di-(4-methylthiophenyl)-3-phtaloylazetidine-2-one and the derivatives thereof” (Universite De Nantes, priority 2015, dated 2019).

What was measured:
[1] = Plasma assay of triglycerides; assay type: in vivo, mouse; settings: context of obesity; stated in conclusion only
Method: (§1) Total cholesterol, triglycerides and hepatic markers were assayed by a Dimension Vista Intelligent Lab System (Siemens, Saint-Denis, France) using suitable reagents.

[2] = tested on: liver, subcutaneous and visceral adipose tissue of obese mice; experiment: Gene expression of markers (RT-PCR) in liver and adipose tissues after oral treatment with food; assay type: in vivo, mouse
Method: Total messenger RNA (mRNA) extraction was carried out with Tri-Reagent (Euromedex, France) and consecutive synthesis of complementary DNA (cDNA) was carried out from 1 μg of mRNA with the Bio-Rad iScripttm Reverse Transcription super mix kit (Bio-Rad, France). Gene expression was evaluated by semi-quantitative real-time reverse transcription-polymerase chain reaction (RT-PCR). The primers used, described below, were selected using the Primer3Plus software (http://www.bioinformatics.nl/cgi-25 bin/primer3plus/primer3plus.cgi) and synthesized by MWG-Biotech. Semi-quantification of gene expression was obtained by taking into account the efficacy of each PCR and standardization with the reporter gene TATA box-binding protein (TBP).
The impact of the treatment on endocannabinoid system activity is evaluated by measuring the gene expression 1) of receptors CB1R and CB2R 2) of the endocannabinoid synthesis enzyme, N-acyl phosphatidylethanolamine phospholipase D (NAPE-PLD) and 3) of the endocannabinoid degradation enzyme, fatty acid amide hydrolase (FAAH).
Fatty acid synthase (FAS), stearoyl-CoA desaturase 1 (SCD-1) and glycerol-phosphate acyl-transferase (GPAT2) are enzymes whose expression variations reflect lipogenic activity.
Glucose-6-phosphatase (G6P) and the glucose transporters GLUT2 and GLUT4 in the liver are used herein as neoglucogenesis markers.
F4/80 is a mature macrophage marker.
Tumour necrosis factor-alpha (TNF-a) is a proinflammatory cytokine affecting the regulation of numerous biological processes such as immune functions, cell differentiation and energy metabolism.

wild-type C57BL/6 mice = experiment: Acute oral glucose tolerance test (OGTT) in wild-type mice; assay type: in vivo, mouse; settings: 10 mg/kg i.p. 10 min before 2 g/kg oral glucose load, wild-type C57Bl/6J mice
Method: In order to evaluate the short-term effects of the rimonabant-like molecules, as well as their selectivity for CB1R, wild-type C57BL/6 mice and CB1R −/− mice underwent an oral glucose tolerance test (OGTT at 2 g/kg) 10 min after i.p. injection of vehicle or of JM-02.003 or JM-00.266 (i.e., compound IA) (10 mg/kg). Blood glucose was measured at times t=0, t=15 min, t=30 min, t=45 min, t=60 min, t=90 min, and t=120 min post-oral. glucose administration using a Contour®TS blood glucose monitor (ref. 81574201, Bayer HealthCare) and reactive strips (ref. 81574274, Bayer HealthCare).

obese C57BL/6 mice [3] = experiment: Body mass, 43-day oral treatment combined with low-fat diet; assay type: in vivo, mouse; settings: low-fat diet (5% lipids), oral daily, 43 days
From the text: In order to determine the long-term effects of compound of interest JM-00.266 (i.e., compound IA), C57BL/6 mice were made obese by means of a high-fat diet (30% crude fat, 33.5% carbohydrates; ref. E15126-34, SSNIFF, Soest, Germany) for 15 weeks. The mice were then subjected to a low-fat diet (5% lipids; Standard Diet AO4; UAR, Epinay-sur-Orge, France) and received daily, in the middle of the day, an oral dose of JM-00.266 (i.e., compound IA) or of vehicle over a period of 43 days. The weight of the animals was measured every two days from the beginning of the treatment.

obese C57BL/6 mice [4] = experiment: Glucose tolerance test after oral treatment simultaneously with food; assay type: in vivo, mouse; settings: 28 days, administered at the same time as the meal
Method: In order to evaluate the long-term effects of the treatment on blood glucose control, glucose tolerance was evaluated at the end of the treatment period. The mice received an intraperitoneal injection of glucose (2 g/kg) then blood glucose was measured at times t=0, t=15 min, t=30 min, t=45 min, t=60 min, t=90 min, and t=120 min post-glucose injection using a My Life Pura blood glucose monitor (Ypsomed, Paris, France).

obese C57BL/6 mice [5] = experiment: Plasma liver markers after 30-day chronic treatment; assay type: in vivo, mouse
From the text: (§2) In order to determine the long-term effects of the molecules of interest, C57BL/6 mice made obese by means of a high-sucrose, high-fat diet (HSHF: 30% crude fat, 33.5% carbohydrates; ref. E15126-34; ref. E15126-34, SSNIFF, Soest, Germany) for 20 weeks. These mice then received daily an i.p. injection of rimonabant, JM-00.266 (i.e., compound IA) or vehicle for a period of 30 days. In parallel, weight and food intake were monitored every two days following the beginning of the treatment.
as §1

[6] = tested on: CB1R expression in liver explants of ob/ob mice; experiment: Liver explant culture, CB1R gene expression (RT-PCR); assay type: cell-based, mouse; settings: liver explants of ob/ob mice treated 21 h, FIG. 1
Method: The liver of the mice was perfused in situ, under sodium pentobarbital anaesthesia (50 mg/kg), with Hank's medium (pH 7.4) saturated with oxygen. Next, the liver was sectioned using a Brendel/Vitron slicer (Tucson, Ariz., USA) in the same medium. The liver sections (about 200 μm) were then incubated 21 h in William's medium E (WME) oxygenated and supplemented with deactivated foetal calf serum (10%) and antibiotic/antifungal cocktail (1%) under controlled atmosphere (5% CO2), to which is added either the antagonist to be tested or vehicle.
Total messenger RNA (mRNA) extraction was carried out with Tri Reagent (Euromedex, France) and consecutive synthesis of complementary DNA (cDNA) was carried out from 1 μg of mRNA with the Bio-Rad iScripttm Reverse Transcription super mix kit (Bio-Rad, France).
Gene expression was evaluated by semi-quantitative real-time reverse transcription-polymerase chain reaction (RT-PCR). The primers used were designed using the Primer3Plus software (http://www.bioinformatics.nl/cgi-bin/primer3plus/primer3plus.cgi) and were synthesized by MWG-Biotech (TATA box-binding protein: Sense […], antisense […]; CB1R: Sense […], antisense aaccccacccagtttgaac). Semi-quantification of gene expression was obtained by taking into account the efficacy of each PCR and after standardization with the reporter gene, TATA box-binding protein.

obese C57BL/6 mice [7] = experiment: Food intake, body weight and body composition (EchoMRI) during 30-day chronic treatment; assay type: in vivo, mouse; settings: obese mice, 10 mg/kg i.p. daily, 30 days
From the text: as §2
The long-term effect of the treatment on body composition was measured using an EchoMRI™ scanner allowing non-invasive analysis of fat mass, lean mass and body fluid composition by nuclear magnetic resonance (NMR) on the live animal without anaesthesia.

[8] = obese mice, 10 mg/kg i.p. daily, 30 days

CSc1ccc(C2C(N3C(=O)c4ccccc4C3=O)C(=O)N2c2ccc(SC)cc2)cc1 (stereo not drawn) [JM-00.266, trans-1,4-di-(4-methylthiophenyl)-3-N-phthaloyl-azetidine-2-one]
blood triglycerides [1]: decreasing blood triglycerides | TNF-a expression ([2]; adipose tissue): trend towards the reduction | expression of FAS ([2]; adipose tissue): reduction | expression of CB R ([2]; any of the tissues tested): not modified | expression of FAAH ([2]; any of the tissues tested): not modified | expression of GPAT ([2]; liver): reduction | expression of SCD-1 ([2]; liver): reduction | F4/80 expression ([2]; liver and adipose tissues): clearly decreased | CB2R expression ([2]; tissues of treated animals): lower | expression of NAPE-PLD ([2]; tissues tested, 28 d oral with food): reduction | glucose tolerance compared with vehicle (wild-type C57BL/6 mice): improves glucose tolerance | body mass / weight loss versus vehicle + low-fat diet (obese C57BL/6 mice [3]): decreases significantly more | glucose tolerance versus vehicle (obese C57BL/6 mice [4]): better glucose tolerance | liver damage markers compared with the control (obese C57BL/6 mice [5]; 30-day chronic treatment): does not cause an increase | liver toxicity (obese C57BL/6 mice [5]; chronic administration): no liver toxicity | ALPI plasma concentration (obese C57BL/6 mice [5]; [8]): 47.3 ± 3.6 | ALT plasma concentration (obese C57BL/6 mice [5]; [8]): 34.3 ± 10.5 U/L | AST plasma concentration (obese C57BL/6 mice [5]; [8]): 60.8 ± 13.4 U/L | Gamma GT plasma concentration (obese C57BL/6 mice [5]; [8]): <3 U/L | Total bilirubin plasma concentration (obese C57BL/6 mice [5]; [8]): <2 µmol/L | hepatic CB1R expression [6]: significant decrease | body weight relative to control mice (obese C57BL/6 mice [7]): does not decrease | food intake compared with control mice (obese C57BL/6 mice [7]): not altered
